Structures are written as SMILES. Read-outs that look alike come from different tables or passages of the source.

What all share (assay): Kinase panel profiling at 1 µmol/L (MSA or IMAP), percentage inhibition
Assay type in all cases: biochemical

Test [1] deals with panel of 255 wild-type kinases (Homo sapiens, UniProt O14578). Conditions: read-out: %-inhibition at 1 µmol/L, CRIK.
For test [2], the target named is T1, panel of 255 wild-type kinases (Homo sapiens, UniProt Q13237).
T1 sequence (Q13237 1-762): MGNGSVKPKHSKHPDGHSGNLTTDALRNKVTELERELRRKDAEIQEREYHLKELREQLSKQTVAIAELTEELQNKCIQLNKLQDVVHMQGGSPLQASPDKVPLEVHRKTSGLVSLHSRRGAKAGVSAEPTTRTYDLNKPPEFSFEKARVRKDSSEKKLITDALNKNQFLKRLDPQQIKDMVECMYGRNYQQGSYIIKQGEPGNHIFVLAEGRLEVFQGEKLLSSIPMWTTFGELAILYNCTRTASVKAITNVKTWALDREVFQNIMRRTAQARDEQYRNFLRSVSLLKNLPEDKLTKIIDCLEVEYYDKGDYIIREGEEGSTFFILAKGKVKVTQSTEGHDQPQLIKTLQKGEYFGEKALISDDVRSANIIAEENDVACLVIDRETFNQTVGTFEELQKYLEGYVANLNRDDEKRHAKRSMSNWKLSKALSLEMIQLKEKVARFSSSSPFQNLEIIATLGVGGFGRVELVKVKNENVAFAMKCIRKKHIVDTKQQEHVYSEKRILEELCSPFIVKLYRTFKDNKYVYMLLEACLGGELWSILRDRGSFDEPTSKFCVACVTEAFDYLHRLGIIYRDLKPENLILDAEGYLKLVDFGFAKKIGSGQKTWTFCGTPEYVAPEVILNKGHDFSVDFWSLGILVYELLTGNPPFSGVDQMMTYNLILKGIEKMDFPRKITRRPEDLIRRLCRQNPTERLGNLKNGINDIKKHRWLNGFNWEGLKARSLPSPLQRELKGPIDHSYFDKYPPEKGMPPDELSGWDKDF
Conditions: read-out: %-inhibition CGK2.

Test [3] deals with panel of 255 wild-type kinases (Homo sapiens, UniProt P35968). Conditions: read-out: %-inhibition at 1 µmol/L, KDR.
For test [4], the target named is T2, panel of 255 wild-type kinases (Homo sapiens, UniProt P51817).
T2 sequence (P51817 1-358): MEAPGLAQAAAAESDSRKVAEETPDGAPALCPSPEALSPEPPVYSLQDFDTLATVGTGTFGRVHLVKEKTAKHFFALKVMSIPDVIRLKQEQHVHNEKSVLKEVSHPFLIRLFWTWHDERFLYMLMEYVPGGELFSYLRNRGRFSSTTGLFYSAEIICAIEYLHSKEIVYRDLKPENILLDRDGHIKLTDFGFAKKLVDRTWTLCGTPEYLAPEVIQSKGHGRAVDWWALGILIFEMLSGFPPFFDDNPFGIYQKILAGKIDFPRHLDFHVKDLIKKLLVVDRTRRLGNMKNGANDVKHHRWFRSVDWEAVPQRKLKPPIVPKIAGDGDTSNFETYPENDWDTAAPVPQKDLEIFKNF
Conditions: read-out: %-inhibition at 1 µmol/L, PRKX.

For test [5], the target named is T3, panel of 255 wild-type kinases (Homo sapiens, UniProt Q9UF33).
T3 sequence (Q9UF33 23-1036): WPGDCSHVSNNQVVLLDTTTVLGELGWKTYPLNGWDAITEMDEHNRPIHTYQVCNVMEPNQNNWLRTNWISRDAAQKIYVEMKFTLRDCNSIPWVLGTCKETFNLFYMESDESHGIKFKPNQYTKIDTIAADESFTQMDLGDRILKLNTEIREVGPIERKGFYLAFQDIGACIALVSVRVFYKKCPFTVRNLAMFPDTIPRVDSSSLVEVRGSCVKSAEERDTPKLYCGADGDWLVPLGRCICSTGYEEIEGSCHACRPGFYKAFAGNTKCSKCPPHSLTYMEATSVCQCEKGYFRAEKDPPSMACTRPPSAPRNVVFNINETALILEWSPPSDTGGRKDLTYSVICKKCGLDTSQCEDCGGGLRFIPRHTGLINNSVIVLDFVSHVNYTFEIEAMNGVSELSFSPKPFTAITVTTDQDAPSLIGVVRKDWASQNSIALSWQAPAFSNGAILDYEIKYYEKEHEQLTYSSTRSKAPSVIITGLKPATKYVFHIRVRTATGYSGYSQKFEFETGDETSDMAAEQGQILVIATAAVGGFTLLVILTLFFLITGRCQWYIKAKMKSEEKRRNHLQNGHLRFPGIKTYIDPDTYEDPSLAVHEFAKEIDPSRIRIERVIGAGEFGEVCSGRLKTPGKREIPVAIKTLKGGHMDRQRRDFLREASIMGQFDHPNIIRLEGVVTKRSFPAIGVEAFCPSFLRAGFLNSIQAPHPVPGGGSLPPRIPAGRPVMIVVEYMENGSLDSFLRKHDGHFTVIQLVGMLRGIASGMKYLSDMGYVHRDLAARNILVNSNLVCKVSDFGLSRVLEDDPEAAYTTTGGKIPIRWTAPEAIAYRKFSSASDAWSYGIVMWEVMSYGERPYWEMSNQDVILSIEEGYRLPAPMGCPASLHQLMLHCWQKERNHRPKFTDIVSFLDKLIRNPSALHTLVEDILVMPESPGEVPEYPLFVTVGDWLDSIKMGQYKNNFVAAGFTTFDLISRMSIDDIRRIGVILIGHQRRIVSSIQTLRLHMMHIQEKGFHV
Conditions: read-out: %-inhibition at 1 µmol/L, EPHA6.

Where [6] appears, read: kinase CRIK, 1 µmol/L single concentration.
Setting [7] is: CGK2 kinase assay, 1 µmol/L single concentration.
The mark [8] stands for this setting: kinase KDR, 1 µmol/L single concentration.
[9] abbreviates: kinase PRKX, 1 µmol/L single concentration.
Where [10] appears, read: kinase EPHA6, 1 µmol/L single concentration.

For `Cc1nc(NC(=O)N2CCC[C@H]2C(N)=O)sc1-c1ccnc(C(C)(C)C(F)(F)F)c1` [alpelisib], the inhibition at 1 µM in test [1] (setting [6]) is -5.56%; in test [2] (setting [7]), -5%; in test [3] (setting [8]), 8%; in test [4] (setting [9]), -4.49%; in test [5] (setting [10]), 5.35%.

Turning to `Cn1cc(-c2cc3c(N4CCN(c5ncc([C@@](C)(N)c6ccc(F)cc6)cn5)CC4)ncnn3c2)cn1` [avapritinib], the inhibition at 1 µM was -0.548% in test [1] (setting [6]); 4.65% in test [2] (setting [7]); 71% in test [3] (setting [8]); 37% in test [4] (setting [9]); 7% in test [5] (setting [10]).

Consider `Cn1cnc2c(F)c(Nc3ccc(Br)cc3F)c(C(=O)NOCCO)cc21` [binimetinib], for which the inhibition at 1 µM was -3.44% in test [1] (setting [6]); 2.58% in test [2] (setting [7]); 15% in test [3] (setting [8]); 2.57% in test [4] (setting [9]); 2.34% in test [5] (setting [10]).

Take `CNC(=O)c1ccc(-c2cnc3ncc(Cc4ccc5ncccc5c4)n3n2)cc1F` [capmatinib]: the inhibition at 1 µM in test [1] was -4.75%; in test [2], -1.13%; in test [3], 4%; in test [4] it was -5.65%; in test [5], -2%.

`COc1cc2ncnc(Nc3ccc(F)c(Cl)c3)c2cc1NC(=O)/C=C/CN1CCCCC1` [dacomitinib]: the inhibition at 1 µM in test [1] (setting [6]) stood at 32%; in test [2] (setting [7]), 10%; in test [3] (setting [8]), 42%; in test [4] (setting [9]), 0.677%; in test [5] (setting [10]), 98%.

For `C[C@H](Nc1ncnc2nc[nH]c12)c1cc2cccc(Cl)c2c(=O)n1-c1ccccc1` [duvelisib], the inhibition at 1 µM in test [1] (setting [6]) is -3.16%; in test [2] (setting [7]), -0.775%; in test [3] (setting [8]), 11%; in test [4] (setting [9]), 0.385%; in test [5] (setting [10]), 5.71%.

Take `COC(=O)N[C@@H](C)CNc1nccc(-c2cn(C(C)C)nc2-c2cc(Cl)cc(NS(C)(=O)=O)c2F)n1` [encorafenib]: the inhibition at 1 µM in test [1] (setting [6]) was determined as 2.72%; in test [2] (setting [7]), 0.267%; in test [3] (setting [8]), 22%; in test [4] (setting [9]), 1.82%; in test [5] (setting [10]), 17%.

Take `CN1CCN(c2ccc(C(=O)Nc3n[nH]c4ccc(Cc5cc(F)cc(F)c5)cc34)c(NC3CCOCC3)c2)CC1` [entrectinib]: the inhibition at 1 µM is -9% in test [1] (setting [6]), 4.42% in test [2] (setting [7]), 2.19% in test [4] (setting [9]) and 44% in test [5] (setting [10]).

Take `CCc1nc(C(N)=O)c(Nc2ccc(N3CCC(N4CCN(C)CC4)CC3)c(OC)c2)nc1NC1CCOCC1` [gilteritinib]: the inhibition at 1 µM in test [1] (setting [6]) was 75%; in test [2] (setting [7]), 82%; in test [3] (setting [8]), 104%; in test [4] (setting [9]), 4%; in test [5] (setting [10]), 94%.

As for `CCN1CCN(c2ccc(Nc3cc(N(C)C(=O)Nc4c(Cl)c(OC)cc(OC)c4Cl)ncn3)cc2)CC1` [infigratinib], the inhibition at 1 µM in test [1] (setting [6]) is -2.56%; in test [2] (setting [7]), -2%; in test [3] (setting [8]) it was 92%; in test [4] (setting [9]), -3.53%; in test [5] (setting [10]) it was 28%.

With `O=C(Nc1cnn2ccc(N3CCC[C@@H]3c3cc(F)ccc3F)nc12)N1CC[C@H](O)C1` [larotrectinib], the inhibition at 1 µM in test [1] (setting [6]) was -4.22%; in test [2] (setting [7]), -0.443%; in test [3] (setting [8]), 6%; in test [4] (setting [9]), 0.637%; in test [5] (setting [10]) it was -0.585%.

For the molecule `C[C@H]1Oc2cc(cnc2N)-c2c(nn(C)c2C#N)CN(C)C(=O)c2ccc(F)cc21` [lorlatinib], the inhibition at 1 µM in test [1] (setting [6]) is -1.22%; in test [2] (setting [7]) it was -3%; in test [3] (setting [8]) it was 7%; in test [4] (setting [9]) it was 3.38%; in test [5] (setting [10]), 76%.

(Values after publication PMC9516332 (Frontiers in Oncology, 2022).)
